From patent US10662204B2 (PFIZER INC., priority 2018, dated 2020)

Key:
[1] = target: T1, GDP-loaded KRAS (1-169) G12C, C51S, C80L, C118S (Homo sapiens, UniProt P01116, C118S/C51S/C80L/G12C); assay: Mass Spectrometry Reactivity Assay (MSRA): covalent adduct of compound and KRAS G12C, Percent Modification; format: binding; details: for MSRA (% modification) 10 μM 0.25 hr / MSRA (% modification) 10 μM 0.50 hr: 10 μM compound; for MSRA (% modification) 5.0 μM 0.25 hr / MSRA (% modification) 5.0 μM 0.017 hr: 5.0 μM compound
T1 construct: GDP-loaded KRAS (1-169) G12C, C51S, C80L, C118S
How it was run: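 GDP-loaded KRAS(1-169) G12C/C51S/C80L/C118S at 5 μM in 25 mM Hepes pH 7.5, 200 mM NaCl, 5% glycerol incubated at RT with compound (typically 5 or 10 μM final, 1% DMSO). Quenched in formic acid at 1-60 min; intact-protein LC-TOF MS gives % modification = modified/(modified+unmodified).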

[2] = target: KRAS G12C (Homo sapiens, UniProt P01116, G12C); assay: Cell Activity Assay: accumulation of GDP-bound KRAS G12C in MIAPaCa-2 cells (Raf-1 RBD capture, MSD readout); format: cell-based; design: endogenous in cells; host or cells: MIAPaCa-2; details: 6 hours, assay limit is 30.00
How it was run: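 MIAPaCa-2 cells exposed 6 h at 37 °C to 3-fold compound dilutions (0.3% DMSO final), then lysed. Active GTP-KRAS captured on Raf-1 RBD-coated plates, detected with anti-pan-Ras and SULFO-TAG secondary by MSD electrochemiluminescence. Signal normalized to DMSO and maximum inhibition; IC50 from 4-parameter fit.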

SMILES	MSRA (% modification) 10 μM 0.25 hr [1] [%]	MSRA (% modification) 10 μM 0.50 hr [1] [%]	IC50 [2] [µM]	MSRA (% modification) 5.0 μM 0.25 hr [1] [%]	MSRA (% modification) 5.0 μM 0.017 hr [1] [%]
C=CC(=O)N1CCN(c2ncnc3c(Oc4c(Cl)c(C)cc5[nH]ncc45)nc(C#N)cc23)CC1 [Example 19A, 4-(4-acryloylpiperazin-1-yl)-8-[(5-chloro-6-methyl-1H-indazol-4-yl)oxy]pyrido[3,4-d]pyrimidine-6-carbonitrile]	21	33	28		
C=CC(=O)N1CCN(c2nc(OCC3CCC(=O)N3C)nc3c(Oc4c(Cl)c(F)cc5[nH]ncc45)nc(Cl)cc23)CC1 (stereo not shown) [Example 14G, 5-[({4-(4-acryloylpiperazin-1-yl)-6-chloro-8-[(5-chloro-6-fluoro-1H-indazol-4-yl)oxy]pyrido[3,4-d]pyrimidin-2-yl}oxy)methyl]-1-methylpyrrolidin-2-one]	79		0.401	78	
C=CC(=O)N1CCN(c2ncnc3c(Oc4c(C)ccc5[nH]ncc45)nc(C#N)cc23)CC1 [Example 18A, 4-(4-acryloylpiperazin-1-yl)-8-[(5-methyl-1H-indazol-4-yl)oxy]pyrido[3,4-d]pyrimidine-6-carbonitrile]		34	6.45		
C=CC(=O)N1CCN(c2nc(O[C@@H]3CN(CCOC)C[C@H]3OC)nc3c(Oc4c(Cl)c(F)cc5[nH]ncc45)nccc23)CC1 [Example 18H, 1-[4-(8-[(5-chloro-6-fluoro-1H-indazol-4-yl)oxy]-2-{[(3R,4R)-4-methoxy-1-(2-methoxyethyl)pyrrolidin-3-yl]oxy}pyrido[3,4-d]pyrimidin-4-yl)piperazin-1-yl]prop-2-en-1-one]			0.07		52
C=CC(=O)N1CCN(c2nc(OC[C@@H]3C[C@H](F)CN3C)nc3c(Oc4c(C)c(Cl)cc5[nH]ncc45)nc(Cl)cc23)CC1 [Example 17G, 1-[4-(6-chloro-8-[(6-chloro-5-methyl-1H-indazol-4-yl)oxy]-2-{[(2S,4S)-4-fluoro-1-methylpyrrolidin-2-yl]methoxy}pyrido[3,4-d]pyrimidin-4-yl)piperazin-1-yl]prop-2-en-1-one]	79		0.054		
C=CC(=O)N1CCN(c2nc(Oc3cccnc3C(C)C)nc3c(Oc4c(Cl)c(F)cc5[nH]ncc45)nccc23)CC1 [Example 05I, 1-[4-(8-[(5-chloro-6-fluoro-1H-indazol-4-yl)oxy]-2-{[2-(propan-2-yl)pyridin-3-yl]oxy}pyrido [3,4-d]pyrimidin-4-yl)piperazin-1-yl]prop-2-en-1-one]			0.074	70	
C=CC(=O)N1C[C@H](C)N(c2ncnc3c(Oc4c(Cl)c(F)cc5[nH]ncc45)nc(Cl)cc23)C[C@H]1C [Example 35A, 1-[(2R,5S)-4-{6-chloro-8-[(5-chloro-6-fluoro-1H-indazol-4-yl)oxy]pyrido[3,4-d]pyrimidin-4-yl}-2,5-dimethylpiperazin-1-yl]prop-2-en-1-one]	64		4.26		
C=CC(=O)N1C[C@H](C)N(c2nc(N3CC(N(C)C)C3)nc3c(Oc4c(C)ccc5[nH]ncc45)nc(C)cc23)C[C@H]1C [Example 06B, 1-[(2R,5S)-4-{2-[3-(Dimethylamino)azetidin-1-yl]-6-methyl-8-[(5-methyl-1H-indazol-4-yl)oxy]pyrido[3,4-d]pyrimidin-4-yl}-2,5-dimethylpiperazin-1-yl]prop-2-en-1-one]		9	> 30		
C=CC(=O)N1CCN(c2nc(N3CC(N(C)C)C3)nc3c(Oc4c(Cl)c(C)cc5[nH]ncc45)cccc23)CC1 [Example 14E, 1-(4-{8-[(5-chloro-6-methyl-1H-indazol-4-yl)oxy]-2-[3-(dimethylamino)azetidin-1-yl]quinazolin-4-yl}piperazin-1-yl)prop-2-en-1-one]		65	1.01		
C=CC(=O)N1CCN(c2ncnc3c(Oc4c(Cl)c(F)cc5[nH]ncc45)nc(Cl)cc23)C[C@H]1C [Example 37A, 1-[(2R)-4-{6-chloro-8-[(5-chloro-6-fluoro-1H-indazol-4-yl)oxy]pyrido[3,4-d]pyrimidin-4-yl}-2-methylpiperazin-1-yl]prop-2-en-1-one]	63		0.622		
C=CC(=O)N1CCN(c2ncnc3c(Oc4c(Cl)c(F)cc5[nH]ncc45)cccc23)C[C@H]1C [Example 17C, 1-[(2R)-4-{8-[(5-chloro-6-fluoro-1H-indazol-4-yl)oxy]quinazolin-4-yl}-2-methylpiperazin-1-yl]prop-2-en-1-one]		24	2.6		
C=CC(=O)N1CCN(c2nc(Oc3cccnc3C3CC3)nc3c(Oc4c(Cl)c(F)cc5[nH]ncc45)nccc23)CC1 [Example 06I, 1-(4-{8-[(5-chloro-6-fluoro-1H-indazol-4-yl)oxy]-2-[(2-cyclo-propyl-pyridin-3-yl)oxy]pyrido [3,4-d]pyrimidin-4-yl}piperazin-1-yl)prop-2-en-1-one]			0.02	74	
C=CC(=O)N1CCN(c2nc(O[C@@H]3CCN(C)C[C@H]3C)nc3c(Oc4c(Cl)c(F)cc5[nH]ncc45)nc(Cl)cc23)CC1 (racemic) [Example 34G, rac-1-[4-(6-chloro-8-[(5-chloro-6-fluoro-1H-indazol-4-yl)oxy]-2-{[(3R,4R)-1,3-dimethylpiperidin-4-yl]oxy}pyrido[3,4-d]pyrimidin-4-yl)piperazin-1-yl]prop-2-en-1-one]			0.063		47
C=CC(=O)N1CCN(c2ncnc3c(Oc4c(F)ccc5[nH]ncc45)nccc23)CC1 [Example 08A, 1-(4-{8-[(5-fluoro-1H-indazol-4-yl)oxy]pyrido[3,4-d]pyrimidin-4-yl}piperazin-1-yl)prop-2-en-1-one]		6	11.1		
C=CC(=O)N1CCN(c2nc(N3CC(N(C)C)C3)nc3c(Oc4c(Cl)c(C)cc5[nH]ncc45)cc(Cl)cc23)CC1 [Example 11E, 1-(4-{6-chloro-8-[(5-chloro-6-methyl-1H-indazol-4-yl)oxy]-2-[3-(dimethylamino)azetidin-1-yl]quinazolin-4-yl}piperazin-1-yl)prop-2-en-1-one]		68	3.95		
C=CC(=O)N1CCN(c2nc(OC[C@@H]3CCCN3C)nc3c(Oc4c(C)ccc5[nH]ncc45)nccc23)CC1 [Example 08B, 1-[4-(8-[(5-methyl-1H-indazol-4-yl)oxy]-2-{[(2S)-1-methylpyrrolidin-2-yl]methoxy}pyrido[3,4-d]pyrimidin-4-yl)piperazin-1-yl]prop-2-en-1-one]	44		2.56		
